The conditions of data set [1]: cited from earlier work.
Data set [2] deals with induced supraventricular tachycardia. Description: Induced supraventricular tachycardia (SVT) model in anesthetized dogs, intratracheal (IT) vs intravenous administration. It counts as in vivo, dog. Particulars: for cardiovascular effect when given intratracheally (summary): intratracheal, summary of study. On the procedure: A venous catheter was placed in a peripheral vessel (i.e., cephalic) for administration of anesthetic(s). For anesthesia induction, all animals were given a combination of diazepam (˜0.5 mg/kg) and ketamine (˜10 mg/kg) intravenously through this venous catheter. Anesthesia was sustained until completion of the study with an intravenous infusion of pentobarbital (5-15 mg/kg/hr). Following induction, animals were endotracheally intubated and mechanically ventilated (˜12 breaths/min with a tidal volume of 200-300 mL).
Subsequently, a cut-down on a jugular vein permitted the introduction of a pacing lead into the right atrium. Similarly, for arterial pressure monitoring, a solid-state micromanometer catheter (Millar Instruments) was advanced into the aortic root via a cut-down over an artery (e.g., femoral, carotid). Transthoracic electrodes forming ECG lead II was placed. For vehicle/test article delivery, a 4F catheter was introduced through the trachea and wedged into a small airway, and a venous catheter was placed in a peripheral vessel (i.e., cephalic).
Following instrumentation/hemodynamic stabilization (for at least 15 minutes), right atrial pacing (5-10 V, 40 Hz, 2 ms pulses) was established in order to induce supraventricular tachycardia (SVT); pacing and SVT was sustained throughout the duration of the experiments. Approximately 5 minutes after onset of SVT and while monitoring ECG/arterial pressure continuously, the animals were administered three escalating doses (one at a time) of a test article; each dose was delivered as a bolus (˜3 mL) directly into a small airway through the intratracheal catheter (IT). Following dosing, the heart-rate (HR) and arterial pressure response were monitored for 15 minutes.
Subsequently (once the response to three IT doses had been recorded), hemodynamic recovery was allowed for approximately 30 minutes, and the electrocardiographic/hemodynamic response to the highest test-article dose was re-evaluated; however, for comparison purposes, this dose was delivered intravenously (IV).
Overall, two groups/test-articles were studied, and up to two animals were assigned to each group (n=2/group): one group received esmolol HCL (0.5-1.0 mg/kg, ESM), while the other received adenosine (0.25-1.0 mg/kg, ADN); only one test article was administered to per animal.

Data set [3] concerns induced atrial fibrillation. Description: Induced atrial fibrillation model in anesthetized dogs, intratracheal (IT) administration. It counts as in vivo, dog. Particulars: for cardiovascular effect when given intratracheally (summary): summary of study; for conversion of atrial fibrillation to normal sinus rhythm: pulmonary (intratracheal/inhalation route). On the procedure:
A venous catheter was placed in a peripheral vessel (i.e., cephalic) for administration of anesthetic. For anesthesia induction, all animals were given morphine sulfate (˜2 mg/kg) and a bolus of alpha chloralose (˜100 mg/kg) intravenously through the venous catheter. Anesthesia was sustained with alpha chloralose (35-75 mg/kg/hour IV), until completion of the study (<2 hours). Following induction, animals were endotracheally intubated and mechanically ventilated (˜12 breaths/minute with a tidal volume of 200-300 mL). Subsequently, a cut-down on a jugular vein permitted introduction of a pacing lead into the right atrium. Transthoracic electrodes forming ECG lead II were placed. For test/vehicle article delivery, a 4F catheter was introduced through the trachea and wedged into a small airway, and a venous catheter was placed in a peripheral vessel (i.e., cephalic). Following instrumentation and hemodynamic stabilization (for at least 15 minutes), phenylephrine was continuously infused (2 ug/kg/min IV) to elevate the systemic arterial pressure and increase vagal (parasympathetic) efferent activity for the duration of the study. Approximately 5 min after administration of this parasympathomimetic was started; the following experiments were performed: First, the right atrium was paced (20 V, 40 Hz, 4 ms pulse) for 15 minutes, and following pacing discontinuation, atrial fibrillation ensued. Approximately 3 minutes after pacing was stopped and atrial fibrillation was observed, the animals were given vehicle (˜3 mL) intra-tracheally (IT); the duration between dosing and, (if observed) the return to sinus rhythm and/or the ventricular rate was noted. Observations were made for up to 10 minutes. Subsequently, atrial fibrillation was re-established via 15-minute pacing cycle(s), as described above. Once pacing was discontinued and atrial fibrillation was observed/stable for 3 minutes, the animals were administered the vehicle or one of the test articles, delivered as a bolus (˜3 mL) directly into a small airway through the intratracheal catheter. Vehicle was only water. In the case of flecainide as the test article, the concentration was 15 mg of flecainide/3 ml of water. Following dosing, the duration between cessation of administration and, if observed, return to sinus rhythm and/or ventricular rate were noted; observations were made for up to 10 minutes.

A short description of the next data set: physchem. Format: physicochemical. The source says:
To evaluate the solubilities of flecainide acetate and diltiazem hydrochloride in water and to evaluate the acceptability of taste and aftertaste of these two drugs for administration as liquid aerosols.

A short description of data set [4]: Preformulation: properties of solutions in water (pH, isotonicity, appearance). Format: physicochemical. The procedure:
To evaluate the solubilities of flecainide acetate and diltiazem hydrochloride in water and to evaluate the acceptability of taste and aftertaste of these two drugs for administration as liquid aerosols. The following solution strengths were prepared for taste evaluation: (1) diltiazem hydrochloride—50 mg/ml solution in distilled water; and (2) flecainide acetate—30 mg/ml solution in distilled water.

The conditions of data set [5]: human, in vivo. The procedure:
The following solution strengths were prepared for taste evaluation: (1) diltiazem hydrochloride—50 mg/ml solution in distilled water; and (2) flecainide acetate—30 mg/ml solution in distilled water.
The Aeroneb®GO device was used because it is a simple-to-use device developed specifically for patients who require respiratory therapy in and away from the home. The device can be used by patients of all ages (infant through adult) and aerosolizes solutions intended for inhalation. Aeroneb® Go works with either an AC wall controller or a battery pack, and can be cleaned with soap and water. More details about this device can be obtained at www.aerogen.com.
Number of subjects: 2 healthy male volunteers
Water was poured into the nebulizer cup, and the nebulizer was turned on. The visible cloud of aerosol generated when the nebulizer was turned on was treated as a qualitative aerosol standard.
About 1 ml of the 30 mg/ml solution was poured into the cup of the nebulizer. The nebulizer was turned on and the resulting aerosol was similar to but not as dense as the aerosol formed with the water alone.
The nebulizer was then placed in the mouth and switched on. Deep lung inhalation was performed through the nebulizer. About 40 μl (˜1.2 mg of flecainide acetate) of the test solution was inhaled. The inhaled dose was sub-therapeutic in nature as it was much less than the regular 100 mg administered as tablets. Flecainide acetate is also available as an IV injection in Europe as 10 mg/ml strength in 15 ml ampoules.
About 1 ml of the 50 mg/ml solution was poured into the cup of the nebulizer. The nebulizer was turned on and the resulting aerosol was similar to but not as dense as the aerosol formed with the water alone.
The nebulizer was then placed in the mouth and a switched on. Deep lung inhalation was performed through the nebulizer. About 40 μl (˜2 mg of diltiazem hydrochloride) of the test solution was inhaled. The inhaled dose was sub-therapeutic in nature as it was much less than the IV injection marketed in the U.S. as 5 mg/ml in 5 ml vials.

Where [6] appears, read: pulmonary dose 0.25 mg/kg body weight.
Setting [7] is: pulmonary dose between 2-4 mg/kg body weight.

SMILES strings stand for the structures. Structures can show the parent of a compound that is named as a salt. Where two headings read alike, the source gives them in different places.

As for `CCCCCCCCCCCCCCCC(=O)OC[C@H](COP(=O)([O-])OCC[N+](C)(C)C)OC(=O)CCCCCCCCCCCCCCC` [DPPC, dipalmitoylphosphatidylcholine], the “solubility of the phospholipid in water” value in data set [1] is “about 10^−10 mol/L”.

As for `Nc1ncnc2c1ncn2[C@@H]1O[C@H](CO)[C@@H](O)[C@H]1O` [adenosine], the “effect on the heart” value in data set [2] (administered via the lung) was “did not have any effect on the heart”. Besides, the “cardiovascular effect when given intratracheally (summary)” value (shortened to “cardiovascular effect”) in data set [2] is listed as “clear response was not observed”.

The term solubility denotes the dissolved amount per volume that the medium holds. Low values mean little dissolved substance, high ones much dissolved substance. `COc1ccc([C@@H]2Sc3ccccc3N(CCN(C)C)C(=O)[C@@H]2OC(C)=O)cc1.Cl` [diltiazem, diltiazem hydrochloride]: the “mean arterial blood pressure (MAP)” value in data set [3] (dog, in vivo, 0.25 mg/kg) is listed as “notable drop in mean arterial blood pressure”. The heart rate entry in data set [3] (inhalation route, dose not stated) was “reduced heart rate”. Besides, in data set [3] (intratracheal), the “cardiovascular effect” value is “clear cardiovascular effect”. In addition, in data set [3] (dose not stated, hydrochloride), the “conversion of atrial fibrillation to normal sinus rhythm” value is reported as “rapidly converted the Atrial Fibrillation to normal sinus rhythm”. Also, in data set [3] (setting [6]), the PQ interval entry is “prolonged the PQ” and the heart rate result is recorded as “slowed down marginally”. Also, the “conversion of induced atrial fibrillation to normal sinus rhythm” value in data set [3] (pulmonary dose 0.25 mg/kg body weight, hydrochloride, 0.25 mg/kg) is “converted the induced atrial fibrillation to normal sinus rhythm”. In addition, in data set [3] (pulmonary dose 0.25 mg/kg body weight, listed as diltiazem HCl, hydrochloride, 0.25 mg/kg), the “conversion of induced atrial fibrillation to normal sinus rhythm” value is on record as “Afib converting”. Further, the PR interval result in data set [2] (IV or pulmonary route (0.25 mg/kg per FIGS. 14 and 15)) is recorded as “prolonged the PR interval”. Moreover, the “timing of the electrophysiological change” value in data set [2] (IV vs pulmonary) was “comparable between IV and pulmonary”. Also, the “Mean Arterial Pressure (MAP)” value in data set [2] (dog, in vivo, iv, 0.25 mg/kg) was “dropped significantly in both cases”. For the same compound, the “comparison of pulmonary and IV routes” value in data set [2] (pulmonary vs IV (0.25 mg/kg per FIGS. 14 and 15)) was “comparable in all aspects”. Besides, in “physchem”, the solubility is recorded as > 90 mg/mL. Also, the “pH of solution in water” value in data set [4] (3.5 mg/mL solution in water) stood at 6.7. Besides, the “isotonicity of solution in water (% to isotonic)” value in data set [4] (50 mg/mL in water) is recorded as “about 80%”. In data set [4] (50 mg/ml solution in distilled water), the appearance of solution entry is “clear with no visible particulate matter”. Moreover, in data set [5], the “burning sensations in the mouth, throat, or lungs” value was “No burning sensations was felt in the mouth, throat, or lungs” and the visible adverse events entry is listed as “No visible adverse events were observed”.

In the case of `CN(CCOc1ccc(NS(C)(=O)=O)cc1)CCc1ccc(NS(C)(=O)=O)cc1` [dofetilide], the heart rate result in data set [3] (escalating pulmonary doses of 10-40 mcg/kg body weight) was “minor reduction in heart rate”. Moreover, in data set [3] (intratracheal, dose not stated), the ventricular rate entry was “marginally slowed the ventricular rate”. In addition, in data set [3] (intratracheal), the “cardiovascular effect” value is “probable effect”.

As for `COC(=O)CCc1ccc(OCC(O)CNC(C)C)cc1` (stereo not drawn) [esmolol, esmolol HCL], the “period of AV block (FIGS. 17, 18)” value in data set [2] (0.5 mg/kg administered via the lung) is “AV block induced”. The “period of AV block (FIG. 20)” value in data set [2] (0.75 mg/kg administered via the lung) is on record as “AV block induced”. Also, the “drop in MAP” value in data set [2] (delivered via the lung, any of the doses) is listed as “did not cause a drop in MAP”. Moreover, the “cardiovascular effect” value in data set [2] is reported as “probable effect”. In data set [2] (via the lung (IT), elevating doses), the “PR intervals in the ECG traces” value is on record as “affecting the PR intervals”. In data set [2] (via the lung (IT), higher dose 1.0 mg/kg), the electrophysiological effects entry is listed as “did not produce the same electrophysiological effects”. In data set [2] (via the lung (IT), lower doses), the AV block worked out at 2nd degree AV block.

With `O=C(NCC1CCCCN1)c1cc(OCC(F)(F)F)ccc1OCC(F)(F)F` (stereo not drawn) [flecainide, flecainide acetate], the “conversion of Afib (ECG trace, FIG. 12)” value in data set [3] (2 mg/kg body weight) is “Afib converting as soon as dosing occurred”. For the same compound, the “conversion of Afib to normal sinus rhythm (ECG trace, FIG. 11)” value in data set [3] (4 mg/kg body weight) is on record as “Afib converting into normal sinus rhythm”. Further, the “cardiovascular effect” value in data set [3] (intratracheal) is “clear cardiovascular effect”. Further, the “conversion of atrial fibrillation to normal sinus rhythm” value in data set [3] (dose not stated) is reported as “rapidly converted the Atrial Fibrillation to normal sinus rhythm”. Moreover, in data set [3] (setting [7]), the “adverse events such as proarrhythmia” value was “Neither dogs exhibited any known adverse events such as proarrhythmia”, the “conversion of induced atrial fibrillation to normal sinus rhythm” value is reported as “converted the induced atrial fibrillation to normal sinus rhythm” and the “drop in mean arterial pressure” value is “None to minimal drop in mean arterial pressure”. In data set [3] (pulmonary, large doses), the ventricular rate entry was “slower ventricular rates”. The solubility in “physchem” (water) is ~30 mg/mL. Also, the “pH of solution in water” value in data set [4] (2.6 mg/mL solution in water) is listed as 5.0. In addition, the “isotonicity of solution in water (% to isotonic)” value in data set [4] (30 mg/mL in water) was “about 50%”. For the same compound, the appearance of solution entry in data set [4] (30 mg/ml solution in distilled water) was “clear with no visible particulate matter”. Besides, in data set [5], the “burning sensations in the mouth, throat, or lungs” value is “No burning sensations was felt in the mouth, throat, or lungs” and the visible adverse events entry is “No visible adverse events were observed”.

The record behind these values is patent US10045939B2, “Unit doses, aerosols, kits, and methods for treating heart conditions by pulmonary administration” (InCarda Therapeutics, Inc., priority 2009, dated 2018).
